How the values were obtained:
[1] = tested on: immortalized bovine umbilical-vein endothelial cells (BUVEC E6E7); test: Proliferation of BUVEC E6E7 endothelial cells stimulated with VEGF (EdU click assay); assay type: cell-based; conditions: 100 nM, VEGF 50 ng ml^-1
Protocol: (§1) On a 96-well plate treated for cell culture, BUVEC E6E7 and HUVEC cells were seeded at a density of ˜14,000 and ˜11,000 cells cm^−2, respectively. BUVEC E6E7 cells were maintained in F12K culture media with 10% (v/v) fetal bovine serum (FBS) and the HUVEC in F12K media supplemented with 20% of FBS, 100 μg ml^−1 heparin and 25 μg ml^−1 of endothelial cell growth supplement (ECGS). After 24 hours, the cells were starved with FBS-reduced media (0.1% of FBS for BUVEC E6E7 and 0.5% for HUVEC) for 16 hours to synchronize cells in phase GO of the reproductive cycle. After this time, FBS and heparin were replenished only to HUVEC. The cells were then treated with vasoinhibin or the oligopeptide THGRGFI in concentrations ranging from 0.001 to 100 nM for 24 hours in the presence of 10 μM of the thymidine analog 5-Ethynyl-2′-deoxyuridine (EdU) and 50 ng ml^−1 VEGF for the BUVEC E6E7 or the combination of 25 ng ml^−1 VEGF and 20 ng ml^−1 bFGF for HUVEC. At the end of the experiment, cells were fixed with 4% paraformaldehyde, permeabilized with 0.5% Triton X-100 in TBS1x, and stained to detect the newly synthetized DNA by the incorporation of EdU using the “click” assay (which involves a copper catalyzed reaction to covalently bind fluorescent azide to the EDU incorporated to DNA). Total DNA was counterstained with Hoechst 33342 and the “click”-stained nuclei were quantified and plotted relative to the total number of Hoechst 33342-stained nuclei.
For the assay, BUVEC E6E7 cells were seeded at a density of ˜14′000 cells cm^−2 in a 96 well plate with F12K with 10% (v/v) FBS. After 24 hours, cells were starved with 0.1% of FBS for GO synchronization for ˜16 hours. Next, the cells were treated with the different oligopeptides in presence of 10 μM of the thymidine analog EdU and 50 ng ml^−1 of VEGF. Finally, the cells were fixed, permeabilized, and stained for the newly synthetized DNA by the EdU incorporation through the ‘click’ assay. The total DNA was stained with Hoechst 33342 and the percentage of ‘click’-stained nuclei over the total nuclei was a measure of proliferation.

[2] = tested on: human umbilical-vein endothelial cells (HUVEC); test: Proliferation of HUVEC stimulated with VEGF and bFGF (EdU click assay); assay type: cell-based; conditions: for dose-response effect (biological potency) on proliferation of HUVEC: different doses, 24 hours, VEGF 25 ng ml^-1 and bFGF 20 ng ml^-1
Protocol: as §1
HUVEC were seeded on a 96 well plate at a density of ˜11,000 cells cm^−2 and maintained in F12K supplemented with 20% of FBS, 100 μg ml^−1 heparin and 25 μg ml^−1 endothelial cell growth supplement (ECGS). After 24 hours, the cells were synchronized in GO with starving conditions (FBS 0.5%) for 16 hours, and after that FBS and the heparin were replenished. Cells were then treated with THGRGFI, the different oligopeptides and 123 amino acids vasoinhibin, each in a concentration of 100 nM, for 24 hours in presence or absence of 10 μM of thymidine analog 5-Ethynyl-2′-deoxyuridine (EdU) and a combination of 25 ng ml^−1 VEGF and 20 ng ml^−1 bFGF. Finally, the cells were fixed with 4% paraformaldehyde, permeabilized with 0.5% of Triton X-100 in TBS1x and stained for the newly synthetized DNA with the ‘click’ method that detects the EdU incorporation. Total DNA was stained with Hoechst 33342 and the percentage of ‘click’-stained nuclei relative to total nuclei (Hoechst 33342-stained) indicated cell proliferation.
Approximately 11,000 HUVEC cells cm^−2 were seeded on a 96 well plate in F12K media with 20% FBS, 100 μg ml^−1 heparin and 25 μg ml^−1 ECGS. After 24 hours, cells were starved with 0.5% of FBS for ˜16 hours, and after that time the FBS and heparin were added again and cells treated with different doses of the alanine substituted oligopeptides for 24 hours, in the presence of EdU and a combination of 25 ng ml^−1 VEGF and 20 ng ml^−1 bFGF. Finally, the cells were fixed, permeabilized and stained to quantify the synthesis of DNA as a sign of proliferation.

Row | Substance | effect on VEGF-induced proliferation of BUVEC E6E7 at single concentration [1] | dose-response effect (biological potency) on proliferation of HUVEC [2] | further results
1 | GFITKAI (Amino acids 49 to 55 of human prolactin; listed as Homo sapiens) | did not shown any activity |  | 
2 | GRGFITK (Amino acids 47 to 53 of human prolactin; listed as Homo sapiens) | significatively inhibited the VEGF-induced proliferation of endothelial cells |  | 
3 | His Gly Arg [HGR] |  | very similar to the oligopeptide THGRGFI | 
4 | R4A: THGRGFI with the arginine at position X4 substituted by alanine (THGAGFI) |  | did not inhibit endothelial proliferation | 
5 | THIRGGF (scrambled sequence of SEQ ID NO 1) [Scr2, reference compound] |  |  | effect on proliferation of HUVEC at single concentration ([2]; 100 nM, VEGF 25 ng ml^-1 and bFGF 20 ng ml^-1, 24 hours): did not have any effect
6 | TKAINSC (Amino acids 52 to 58 of human prolactin; listed as Homo sapiens) | did not shown any activity |  | 
7 | Thr His Gly Arg (THGR; Amino acids 45 to 48 of human prolactin; listed as Homo sapiens) |  | very similar to the oligopeptide THGRGFI | 
